Reference: US9668480B2, “Method for treating plants against fungi resistant to fungicides using carboxamide or thiocarboxamide derivatives” (priority 2012, dated 2017)
Values joined by “and” are separate entries in the source; they are usually repeats but may differ in a detail not shown here. Identical values can stand only once.

Key:
[1] = system: Botrytis cinerea boscalid-resistant strains with SDHB_P225H, F substitutions; experiment: Sensitivity assay in microtiter plate, resistance factor of boscalid-resistant field strains versus Bo47 WT; type: cell-based
Experimental: Four to five strains with SDHB_P225H, F substitutions were retained for subsequent sensitivity assays in microtiter plate. IC50 of test compounds were determined and resistance factors (RF) calculated as the ratio of IC50 mutant/IC50 WT (Bo47). […] Strains giving a RF below 10 were considered sensitive, moderately resistant when RF was comprised between 10 and 50, resistant above 50.

[2] = target: succinate-ubiquinone redutase (SDH) of mitochondria from the 3884 strain (SDHB P225H substitution) (Botrytis cinerea, UniProt A0A384J5E4+D2IH01+D2IH03, P225H); experiment: SDH activity of extracted mitochondria by DCPIP reduction at 595 nm, P225H mutant; type: biochemical; parameters: key to Classification: Classification A pI50 increase or stable compared to WT; Classification B pI50 decrease inferior or equal to 0.6 compared to WT; Classification C pI50 decrease superior to 0.6 compared to WT; conditions: for IC50 / PI50 P225H3884: mitochondria of 3884 strain, 20 min preincubation, -log 10 of concentration inhibiting DCPIP reduction by 50%; for IC50: read-out: PI50 P225H3884 (converted); for Classification: pI50 on P225H 3884 mitochondria compared to WT
succinate-ubiquinone redutase (SDH) of mitochondria from the 3884 strain (SDHB P225H substitution), sequence (A0A384J5E4 30-300, stated change not applied): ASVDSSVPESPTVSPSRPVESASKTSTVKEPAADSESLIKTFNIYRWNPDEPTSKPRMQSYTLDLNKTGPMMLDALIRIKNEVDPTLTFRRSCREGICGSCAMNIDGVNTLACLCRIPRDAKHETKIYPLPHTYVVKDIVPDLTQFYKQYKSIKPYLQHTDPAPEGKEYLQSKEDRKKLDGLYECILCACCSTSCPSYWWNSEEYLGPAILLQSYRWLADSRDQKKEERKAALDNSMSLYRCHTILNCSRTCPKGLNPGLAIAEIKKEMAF
succinate-ubiquinone redutase (SDH) of mitochondria from the 3884 strain (SDHB P225H substitution), sequence (D2IH03 46-189, stated change not applied): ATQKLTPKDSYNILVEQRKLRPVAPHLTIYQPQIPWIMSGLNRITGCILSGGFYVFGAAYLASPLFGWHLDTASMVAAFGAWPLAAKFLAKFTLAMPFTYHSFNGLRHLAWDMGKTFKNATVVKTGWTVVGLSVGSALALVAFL
succinate-ubiquinone redutase (SDH) of mitochondria from the 3884 strain (SDHB P225H substitution), sequence (D2IH01 64-192, stated change not applied): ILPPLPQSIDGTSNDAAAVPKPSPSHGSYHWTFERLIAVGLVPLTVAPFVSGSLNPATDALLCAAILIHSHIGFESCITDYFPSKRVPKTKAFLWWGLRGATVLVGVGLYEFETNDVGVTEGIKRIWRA
succinate-ubiquinone redutase (SDH) of mitochondria from the 3884 strain (SDHB P225H substitution), sequence (A0A384K456 34-647 partner): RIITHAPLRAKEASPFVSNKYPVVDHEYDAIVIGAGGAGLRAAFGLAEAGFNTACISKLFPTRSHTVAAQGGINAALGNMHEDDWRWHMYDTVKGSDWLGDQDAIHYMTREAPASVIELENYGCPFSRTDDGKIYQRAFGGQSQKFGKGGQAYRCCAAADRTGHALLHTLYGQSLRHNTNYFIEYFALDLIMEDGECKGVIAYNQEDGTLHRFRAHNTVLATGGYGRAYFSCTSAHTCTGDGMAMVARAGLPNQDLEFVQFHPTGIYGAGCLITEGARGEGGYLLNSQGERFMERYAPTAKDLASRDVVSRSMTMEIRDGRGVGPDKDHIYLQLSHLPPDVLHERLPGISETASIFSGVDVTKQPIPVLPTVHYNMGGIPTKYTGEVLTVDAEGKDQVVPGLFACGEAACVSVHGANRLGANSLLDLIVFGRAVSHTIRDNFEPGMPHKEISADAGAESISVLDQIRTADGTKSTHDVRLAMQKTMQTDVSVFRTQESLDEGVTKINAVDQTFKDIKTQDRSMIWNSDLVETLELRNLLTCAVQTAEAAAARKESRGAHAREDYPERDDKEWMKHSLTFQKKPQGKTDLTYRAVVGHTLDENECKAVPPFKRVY
Experimental: (§1) Compounds activity was investigated at the level of the mitochondrial target and compared to other SDH inhibitors.
(§2) Mitochondria were extracted according to Cramer et al. (1983) Analytical biochemistry, 128, 384-392 and the mycelium prepared according to Fritz et al., (1993). Agronomie 13, 225-230 except that spore's incubation was pursued for 48 hours. SDH activity was measured by following DCPIP (2,6-dichlorphenol-indophenol) reduction at 595 nm overtime. To test SDH inhibitors, mitochondria were incubated with test compounds for 20 min prior the initiation of the reaction.

[3] = target: succinate-ubiquinone redutase (SDH) of mitochondria from Bo47 WT strain (Botrytis cinerea, UniProt A0A384J5E4+D2IH01+D2IH03); experiment: SDH activity of extracted mitochondria by DCPIP reduction at 595 nm, wild type; type: biochemical; conditions: 20 min preincubation, -log 10 of concentration inhibiting DCPIP reduction by 50%; for IC50: PI50 Bo47 (Wild type)
succinate-ubiquinone redutase (SDH) of mitochondria from Bo47 WT strain, sequence (A0A384K456 entry or part of it): as the sequence (A0A384K456 34-647 partner) above
succinate-ubiquinone redutase (SDH) of mitochondria from Bo47 WT strain, sequence (D2IH03 entry or part of it): as the sequence (D2IH03 46-189, stated change not applied) above
succinate-ubiquinone redutase (SDH) of mitochondria from Bo47 WT strain, sequence (A0A384J5E4 entry or part of it): as the sequence (A0A384J5E4 30-300, stated change not applied) above
succinate-ubiquinone redutase (SDH) of mitochondria from Bo47 WT strain, sequence (D2IH01 entry or part of it): as the sequence (D2IH01 64-192, stated change not applied) above
Experimental: as §1, §2

[4] = mutation P225F, BOTRCI strain 08BC1554
[5] = mutation P225F, BOTRCI strain 08BC1557
[6] = mutation P225F, BOTRCI strain 08BC1558
[7] = mutation P225F, BOTRCI strain 09BC2615
[8] = mutation P225H, BOTRCI strain 09BC2640
[9] = mutation P225H, BOTRCI strain 09BC2648
[10] = mutation P225H, BOTRCI strain 09BC2649
[11] = mutation P225H, BOTRCI strain 09BC2652

SMILES	IC50 [2] [nM]	Classification [2]	IC50 [3]	other results
Cn1nc(C(F)F)c(C(=O)N(Cc2c(C(F)(F)F)ccc(Cl)c2F)C2CC2)c1F [Compound A18, N-[3-chloro-2-fluoro-6-(trifluoromethyl)benzyl]-N-cyclopropyl-3-(difluoromethyl)-5-fluoro-1-methyl-1H-pyrazole-4-carboxamide]	6.31	A	15.8 nM	activity on strains with P225 substitutions compared with wild type strain ([1]; strains with P225 substitutions vs wild type): always more active on strains with P225 substitutions than on wild type strain
Cn1nc(C(F)F)c(C(=O)N(Cc2cc(F)ccc2C2CCCC2)C2CC2)c1F [Compound A9, N-(2-cyclopentyl-5-fluorobenzyl)-N-cyclopropyl-3-(difluoromethyl)-5-fluoro-1-methyl-1H-pyrazole-4-carboxamide]	3.16	A	5.01 nM	
CC(C)CC(C)c1sccc1NC(=O)c1cn(C)nc1C(F)(F)F (stereo not shown) [Penthiopyrad, reference compound]	501	C (Classification C pI50 decrease superior to 0.6 compared to WT)	15.8 nM	
CC(C)c1cccc(F)c1CN(C(=O)c1c(C(F)F)nn(C)c1F)C1CC1 [Compound A10, N-cyclopropyl-3-(difluoromethyl)-5-fluoro-N-(2-fluoro-6-isopropylbenzyl)-1-methyl-1H-pyrazole-4-carboxamide]	6.31	B (Classification B pI50 decrease inferior or equal to 0.6 compared to WT)	3.98 nM	
O=C(Nc1ccccc1-c1ccc(Cl)cc1)c1cccnc1Cl [Boscalid, reference compound]	5010	C (Classification C pI50 decrease superior to 0.6 compared to WT)	39.8 nM	
CC(C)c1ccc(F)cc1CN(C(=O)c1c(C(F)F)nn(C)c1F)C1CC1 [Compound A7, N-cyclopropyl-3-(difluoromethyl)-5-fluoro-N-(5-fluoro-2-isopropylbenzyl)-1-methyl-1H-pyrazole-4-carboxamide]	1.58	A	3.98 nM	
Cc1ccc(C(F)(F)F)c(CN(C(=O)c2c(C(F)F)nn(C)c2F)C2CC2)c1 [Compound A16, N-cyclopropyl-3-(difluoromethyl)-5-fluoro-1-methyl-N-[5-methyl-2-(trifluoromethyl)benzyl]-1H-pyrazole-4-carboxamide]	5.01	A	20 nM	
Cn1nc(C(F)F)c(C(=O)N(Cc2cc(F)ccc2C2CC2)C2CC2)c1F [Compound A8, N-cyclopropyl-N-(2-cyclopropyl-5-fluorobenzyl)-3-(difluoromethyl)-5-fluoro-1-methyl-1H-pyrazole-4-carboxamide]	3.16	A	7.94 nM	
Cn1nc(C(F)F)c(C(=O)N(Cc2c(Cl)cccc2C(F)(F)F)C2CC2)c1F [Compound A17, N-[2-chloro-6-(trifluoromethyl)benzyl]-N-cyclopropyl-3-(difluoromethyl)-5-fluoro-1-methyl-1H-pyrazole-4-carboxamide]	3.16	A	10 nM	
CCc1ccccc1CN(C(=O)c1c(C(F)F)nn(C)c1F)C1CC1 [Compound A21, N-cyclopropyl-3-(difluoromethyl)-N-(2-ethylbenzyl)-5-fluoro-1-methyl-1H-pyrazole-4-carboxamide]	2.51	A	10 nM and 31.6 nM	
Cn1cc(C(=O)Nc2ccccc2-c2cc(F)c(F)c(F)c2)c(C(F)F)n1 [Fluxapyroxad]		C (Classification C pI50 decrease superior to 0.6 compared to WT)		resistance factor (RF), ratio of IC50 mutant/IC50 WT (Bo47) [1, 4]: 197.2; resistance factor (RF), ratio of IC50 mutant/IC50 WT (Bo47) [1, 5]: 135.6; resistance factor (RF), ratio of IC50 mutant/IC50 WT (Bo47) [1, 6]: 131.5; resistance factor (RF), ratio of IC50 mutant/IC50 WT (Bo47) [1, 7]: 89.1; resistance factor (RF), ratio of IC50 mutant/IC50 WT (Bo47) [1, 8]: 103.0; resistance factor (RF), ratio of IC50 mutant/IC50 WT (Bo47) [1, 9]: 127.9; resistance factor (RF), ratio of IC50 mutant/IC50 WT (Bo47) [1, 10]: 134.2; resistance factor (RF), ratio of IC50 mutant/IC50 WT (Bo47) [1, 11]: 104.7; PI50 P225H3884 [2]: 6.2; PI50 Bo47 (Wild type) [3]: 8.0
Cn1nc(C(F)F)c(C(=O)N(Cc2ccccc2[Si](C)(C)C)C2CC2)c1F [Compound A22, N-cyclopropyl-3-(difluoromethyl)-5-fluoro-1-methyl-N-[2-(trimethylsilyl)benzyl]-1H-pyrazole-4-carboxamide]	3.16	A	3.98 nM	
Cc1ccc(C(C)C)c(CN(C(=O)c2c(C(F)F)nn(C)c2F)C2CC2)c1 [Compound A12, N-cyclopropyl-3-(difluoromethyl)-5-fluoro-N-(2-isopropyl-5-methylbenzyl)-1-methyl-1H-pyrazole-4-carboxamide]	1	A	3.98 nM	
CC(C)c1ccc(Cl)cc1CN(C(=O)c1c(C(F)F)nn(C)c1F)C1CC1 [Compound A5, N-(5-chloro-2-isopropylbenzyl)-N-cyclopropyl-3-(difluoromethyl)-5-fluoro-1-methyl-1H-pyrazole-4-carboxamide]	1.26	A	6.31 nM	
Cn1nc(C(F)F)c(C(=O)N(Cc2cc(Cl)ccc2C(F)(F)F)C2CC2)c1F [Compound A15, N-[5-chloro-2-(trifluoromethyl)benzyl]-N-cyclopropyl-3-(difluoromethyl)-5-fluoro-1-methyl-1H-pyrazole-4-carboxamide]	6.31	A	15.8 nM	
Cn1nc(C(F)F)c(C(=O)N(Cc2ccccc2C2CC2)C2CC2)c1F [Compound A2, N-cyclopropyl-N-(2-cyclopropylbenzyl)-3-(difluoromethyl)-5-fluoro-1-methyl-1H-pyrazole-4-carboxamide]	2.51	A	6.31 nM	
CC(C)c1ccccc1CN(C(=O)c1c(C(F)F)nn(C)c1F)C1CC1 [Compound A1, N-cyclopropyl-3-(difluoromethyl)-5-fluoro-N-(2-isopropylbenzyl)-1-methyl-1H-pyrazole-4-carboxamide]	3.16	A	12.6 nM	
Cc1ccc(C(C)(C)C)c(CN(C(=O)c2c(C(F)F)nn(C)c2F)C2CC2)c1 [Compound A14, N-(2-tert-butyl-5-methylbenzyl)-N-cyclopropyl-3-(difluoromethyl)-5-fluoro-1-methyl-1H-pyrazole-4-carboxamide]	3.16	A	5.01 nM	
Cn1nc(C(F)F)c(C(=O)N(Cc2ccccc2C(C)(C)C)C2CC2)c1F [Compound A3, N-(2-tert-butylbenzyl)-N-cyclopropyl-3-(difluoromethyl)-5-fluoro-1-methyl-1H-pyrazole-4-carboxamide]				resistance factor (RF), ratio of IC50 mutant/IC50 WT (Bo47) [1, 4]: 1.8; resistance factor (RF), ratio of IC50 mutant/IC50 WT (Bo47) [1, 5]: 1.2; resistance factor (RF), ratio of IC50 mutant/IC50 WT (Bo47) [1, 6]: 2.2; resistance factor (RF), ratio of IC50 mutant/IC50 WT (Bo47) [1, 7]: 1.0; resistance factor (RF), ratio of IC50 mutant/IC50 WT (Bo47) [1, 8]: 0.9; resistance factor (RF), ratio of IC50 mutant/IC50 WT (Bo47) [1, 9]: 1.0; resistance factor (RF), ratio of IC50 mutant/IC50 WT (Bo47) [1, 10]: 1.7; resistance factor (RF), ratio of IC50 mutant/IC50 WT (Bo47) [1, 11]: 1.1
CC(C)C1C2CCC1c1c(NC(=O)c3cn(C)nc3C(F)F)cccc12 (stereo not shown) [Isopyrazam]		C (Classification C pI50 decrease superior to 0.6 compared to WT)		resistance factor (RF), ratio of IC50 mutant/IC50 WT (Bo47) [1, 4]: 48.4; resistance factor (RF), ratio of IC50 mutant/IC50 WT (Bo47) [1, 5]: 42.9; resistance factor (RF), ratio of IC50 mutant/IC50 WT (Bo47) [1, 6]: 37.9; resistance factor (RF), ratio of IC50 mutant/IC50 WT (Bo47) [1, 7]: 32.8; resistance factor (RF), ratio of IC50 mutant/IC50 WT (Bo47) [1, 8]: 19.7; resistance factor (RF), ratio of IC50 mutant/IC50 WT (Bo47) [1, 9]: 25.1; resistance factor (RF), ratio of IC50 mutant/IC50 WT (Bo47) [1, 10]: 30.7; sensitivity class of strains by RF ([1]; strains harboring P225H and F substitutions): moderately resistant (moderately resistant when RF was comprised between 10 and 50); PI50 P225H3884 [2]: 7.2; PI50 Bo47 (Wild type) [3]: 8 and 8.2
CC(C)c1ccccc1CN(C(=S)c1c(C(F)F)nn(C)c1F)C1CC1 [Compound A20, N-cyclopropyl-3-(difluoromethyl)-5-fluoro-N-(2-isopropylbenzyl)-1-methyl-1H-pyrazole-4-carbothioamide]	31.6	A	631 nM	
CCc1ccc(F)cc1CN(C(=O)c1c(C(F)F)nn(C)c1F)C1CC1 [Compound A6, N-cyclopropyl-3-(difluoromethyl)-N-(2-ethyl-5-fluorobenzyl)-5-fluoro-1-methyl-1H-pyrazole-4-carboxamide]	2.51	A	7.94 nM	
